In one data set the test system is tracheal secretion. Put plainly: Mucolitic activity: phenol red in the tracheal secretion. Format: in vivo. The conditions noted are these: male mice, 264 micromoles/Kg i.p. ten minutes before phenol red 500 mg/Kg i.p.; % variation of absorbance versus control group = 100%. On the procedure: Mucolitic activity in male mice was evaluated according to the Method of Engler and Zselenyi, J. Pharm. Methods 11, 151, 1984. By this method it is determined the quantity of phenol red in the tracheal secretion. The animals were previously administered i.p. at a dose of 500 mg/Kg with the dye dissolved in physiologic solution. 3 groups of mice (weight 18±2 g), of 10 animal each, were treated i.p. with the dye. One group was the control group. Each of the two treated groups received, ten minutes before the above injection, an i.p. injection of 264 micromoles/Kg of Ambroxol nitrate or Ambroxol hydrochloride, respectively. 30 minutes after the phenol red injection, the animals were sacrificed. The trachea was freed from the surrounding tissues, dissected and washed for 30 minutes in 3 ml of physiologic solution. 0.1 ml of 1 M sodium hydroxide were then added to the physiologic solution. The washings were centrifuged for 15 minutes at 3000 rpm. A spectrophotometric assay was performed on the supernatant in order to determine the concentration of phenol red in the physiologic solution. Mucolitic activity was determined as % variation of absorbance of the sample in the confront of that of the control group, assumed to be 100%.

A further data set concerns histamine. Description: Antihistaminic activity: experimental bronchoconstriction after i.v. histamine. Format: in vivo. Particulars: guinea pig, histamine 2 μg/Kg i.v., compound endovenously, percent values with respect to the control (vehicle = 100).
The subject of data set [1] is cough stroke caused by the aerosol (citric acid). Put plainly: Anti-tussive activity: cough strokes caused by citric acid aerosol. Format: in vivo, Guinea pigs. Particulars: guinea pig, citric acid 7.5% aerosol, 110 micromoles/Kg i.p., 30 minutes after injection, counted for 10 minutes; control group = 100%. The procedure:
Guinea pigs (weight 430+20) were treated as described by Braga et Al. Arzneim. Forsch./Drug Res. 43, 550, 1993.
In this pharmacological experiment 5 groups of 8 animals each were formed. One group was not treated and was the control group.
Each animal was placed in a cylindrical glass container having one tubing through each of the two circular flat surfaces. Said tubing were, respectively, for the aerosol inlet and outlet. The outlet tubing is connected to a polygraphic system.
The aerosol was formed from a solution 7.5% by weight of citric acid in water.
The air variation inside the glass container was registered before and after a cough stroke caused by the aerosol. One hour later Dextromethorphan hydrochloride, Dextromethorphan nitrate, Dextrorphan hydrochloride and dextrorphan nitrate were i.p. administered in a physiologic solution at a dose of 110 micromoles/Kg. 30 minutes after the injection the animals were treated with the aerosol. It was then registered the number of cough strokes for a time of 10 minutes. In the following Table III are reported the average response obtained from each treated group, referred to that of the control group, made 100%.

Data set [2] relates to bronchoconstrictive response induced by capsaicin. Description: Experimental bronchoconstriction induced by capsaicin (tidal air variation, Konzett apparatus). Format: in vivo. Particulars: guinea pig, capsaicin 1 μg/Kg i.v., 0.3 nmoles/min i.v. infusion for 15 minutes; percent values with respect to the control (carrier = 100). The procedure:
(§1) Each groups consisted of eight animals. […] For a total 15 minutes, starting from 5 minutes before capsaicin injection to 10 minutes after) Salbutamol (0.3 nmoles/min), or the corresponding nitrate salt (0.3 nmoles/min) or only the carrier were administered by intravenous infusion were administered to each group.
The heart frequency was determined by an electrocardiographic device, according to the usual methods. The average value of the heart frequency following administration of the vehicle was of 188±7 beats per minute.

For another data set, the system named is heart frequency. Description: Heart frequency (tachycardia) by electrocardiographic device during the capsaicin bronchoconstriction test. Format: in vivo. The conditions noted are these: guinea pig, 0.3 nmoles/min i.v. infusion for 15 minutes; percent values with respect to the control (carrier = 100; vehicle 188±7 beats per minute). The procedure:
as §1
The heart frequency was determined by an electrocardiographic device, according to the usual methods.

Where a name gives a salt, the structure may show the parent alone.

`Nc1c(Br)cc(Br)cc1CN[C@H]1CC[C@H](O)CC1` [Ambroxol hydrochloride]: the “Mucolitic activity (%)” value in the data set with tracheal secretion is 30%.

For `Nc1c(Br)cc(Br)cc1CNC1CCC(O)CC1` (stereo not drawn) [Ambroxol nitrate], the “Mucolitic activity (%)” value with tracheal secretion is 0%. Turning to `O=C(O)COCCN1CCN(C(c2ccccc2)c2ccc(Cl)cc2)CC1` (stereo not drawn) [Cetirizine hydrochloride], the “Broncocostriction (%)” value in the data set with histamine (hydrochloride) was found to be 40%. Consider `O=C(O)COCCN1CCN(C(c2ccccc2)c2ccc(Cl)cc2)CC1` (stereo not drawn) [Cetirizine nitrate], for which the “Broncocostriction (%)” value in the data set on histamine is on record as 0%. `COc1ccc2c(c1)[C@]13CCCC[C@@H]1[C@H](C2)N(C)CC3` [Dextromethorphan hydrochloride]: in data set [1], the “cough strokes (%)” value worked out at 30%.

On to `COc1ccc2c(c1)[C@@]13CCCC[C@H]1[C@@H](C2)N(C)CC3` [Dextromethorphan nitrate], for which the “cough strokes (%)” value in data set [1] is given as 0%. As to `CN1CC[C@@]23CCCC[C@@H]2[C@@H]1Cc1ccc(O)cc13` [Dextrorphan hydrochloride], in data set [1], the “cough strokes (%)” value was 40%.

Take `CN1CC[C@]23CCCC[C@H]2[C@H]1Cc1ccc(O)cc13` [Dextrorphan nitrate]: in data set [1], the “cough strokes (%)” value is on record as 0%. Consider `CC(C)(C)NCC(O)c1ccc(O)c(CO)c1` (stereo not drawn) [Salbutamol.HNO3, Salbutamol nitrate], for which, in data set [2], the “Bronchoconstriction (%)” value turned out to be 0%. Moreover, the “Tachycardia (%)” value in the data set on heart frequency came to 97%. The corresponding values for `CC(C)(C)NCC(O)c1ccc(O)c(CO)c1` (stereo not drawn) [Salbutamol] are 0% and 116%.

Values taken from US6410791B1, “Nitric esters and nitrate salts of specific drugs” (priority 1998, dated 2002).
